Experimental findings from patent publication US20230234943A1, “TREX1 INHIBITORS AND USES THEREOF” (Tempest Therapeutics, Inc., priority 2020, published 2023) are described below.

Molecules are shown by their SMILES.

System in one data set: not given
Experiment: not given
Details: not given
With `COc1cc(-c2nc3ccc(C(N)=O)cc3n2C2(C)COC2)c(F)c(O)c1O` [Example 180, 2-(2-fluoro-3,4-dihydroxy-5-methoxyphenyl)-1-(3-methyloxetan-3-yl)-1H-1,3-benzodiazole-6-carboxamide], the melting point (in general, the temperature, or range, at which the solid turns liquid) worked out at 170.4 °C.
`COc1cc(-c2nc3ccccc3n2C2CCC2)c(C2CC2)c(O)c1O` [Example 174, 4-(1-cyclobutyl-1H-benzo[d]imidazol-2-yl)-3-cyclopropyl-6-methoxybenzene-1,2-diol] displayed a melting point of 209 °C.
`COc1cc(-c2nc3ccc(C#N)cc3n2C2(C)COC2)c(F)c(O)c1O` [Example 179, 2-(2-fluoro-3,4-dihydroxy-5-methoxyphenyl)-1-(3-methyloxetan-3-yl)-1H-1,3-benzodiazole-6-carbonitrile] displayed a melting point of 209 °C.
For `COc1ccc2[nH]c(-c3cc(OC)c(O)c(O)c3C)nc2c1` [Example 175, 6-methoxy-4-(5-methoxy-1H-benzo[d]imidazol-2-yl)-3-methylbenzene-1,2-diol], the melting point was found to be 249.1 °C.
In the case of `COc1cc(-c2nc3ccc(S(C)(=O)=O)cc3n2C2(C)COC2)c(F)c(O)c1O` [Example 178, 3-fluoro-4-[6-methanesulfonyl-1-(3-methyloxetan-3-yl)-1H-1,3-benzodiazol-2-yl]-6-methoxybenzene-1,2-diol], the melting point stood at 257.6 °C.

The next data set deals with T1, Human TREX1 enzyme (amino acids 1-242) (Homo sapiens, UniProt Q9NSU2).
T1 construct: Human TREX1 enzyme (amino acids 1-242)
T1 sequence (Q9NSU2 1-242): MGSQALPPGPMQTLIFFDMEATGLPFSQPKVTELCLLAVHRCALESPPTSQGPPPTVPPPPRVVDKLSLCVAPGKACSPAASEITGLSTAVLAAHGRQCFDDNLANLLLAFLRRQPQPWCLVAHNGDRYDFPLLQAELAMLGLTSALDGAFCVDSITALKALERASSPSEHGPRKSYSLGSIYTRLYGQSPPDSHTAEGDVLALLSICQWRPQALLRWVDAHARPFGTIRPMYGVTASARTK
Description: Human TREX1 enzymatic assay with dsDNA native oligonucleotide (Picogreen fluorescence). The data set is classed as biochemical. As to conditions: 2 mM dithiothreitol in assay buffer; 50 nM dsDNA oligonucleotide; 30 min preincubation at 25° C.; read-out: TREX1/Human + DTT IC50 AVG. The gist of the method:
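TREX1 (0.8–0.16 nM final) preincubated with compound (300 μM–13 nM or 30 μM–1.5 nM, 2% DMSO) 30 min at 25 °C in Tris pH 7.7, 5 mM MgCl2, 2 mM DTT. Annealed dsDNA (50 nM) added for 5–15 min at 25 °C; EDTA quench with Picogreen fluorescence readout.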
For the molecule `COc1cc(-c2nc3ccc(C(N)=O)cc3n2C2(C)COC2)c(F)c(O)c1O` [Example 180, 2-(2-fluoro-3,4-dihydroxy-5-methoxyphenyl)-1-(3-methyloxetan-3-yl)-1H-1,3-benzodiazole-6-carboxamide], the IC50 was ≤ 0.1 µM.
In the case of `COc1cc(-c2nc3ccccc3n2C2CCC2)c(C2CC2)c(O)c1O` [Example 174, 4-(1-cyclobutyl-1H-benzo[d]imidazol-2-yl)-3-cyclopropyl-6-methoxybenzene-1,2-diol], the IC50 is 10 to 100 µM.
Consider `COc1cc(-c2nc3ccc(C#N)cc3n2C2(C)COC2)c(F)c(O)c1O` [Example 179, 2-(2-fluoro-3,4-dihydroxy-5-methoxyphenyl)-1-(3-methyloxetan-3-yl)-1H-1,3-benzodiazole-6-carbonitrile], for which the IC50 was in the range of 0.1 to 1 µM.
On to `COc1ccc2[nH]c(-c3cc(OC)c(O)c(O)c3C)nc2c1` [Example 175, 6-methoxy-4-(5-methoxy-1H-benzo[d]imidazol-2-yl)-3-methylbenzene-1,2-diol], for which the IC50 fell in the range of 10 to 100 µM.
`COc1cc(-c2nc3ccc(S(C)(=O)=O)cc3n2C2(C)COC2)c(F)c(O)c1O` [Example 178, 3-fluoro-4-[6-methanesulfonyl-1-(3-methyloxetan-3-yl)-1H-1,3-benzodiazol-2-yl]-6-methoxybenzene-1,2-diol]: the IC50 lay within 1 to 10 µM.
Still for that read-out and setting: as for `COc1cc(-c2nc3cc(N4CCN(C(=O)c5cc(C)cc(C)c5)CC4)ccc3[nH]2)cc(O)c1O` [Example 125, (4-(2-(3,4-dihydroxy-5-methoxyphenyl)-1H-benzo[d]imidazol-5-yl)piperazin-1-yl)(3,5-dimethylphenyl)methanone], the figure is > 100 µM; as for `COc1cc(-c2nc3ccccc3n2C2CN(C(C)=O)C2)c(C)c(O)c1O` [Example 321, 1-(3-(2-(3,4-dihydroxy-5-methoxy-2-methylphenyl)-1H-benzo[d]imidazol-1-yl)azetidin-1-yl)ethan-1-one], > 100 µM; as for `COc1cc(-c2nc3ccccc3n2-c2ccccc2)c(F)c(O)c1O` [Example 331, 3-fluoro-6-methoxy-4-(l-phenyl-1H-1,3-benzodiazol-2-yl)benzene-1,2-diol], 1 to 10 µM.
Consider `COc1cccc(C(=O)N2CCN(c3ccc4[nH]c(-c5cc(O)c(O)c(OC)c5)nc4c3)CC2)c1` [Example 124, (4-(2-(3,4-dihydroxy-5-methoxyphenyl)-1H-benzo[d]imidazol-5-yl)piperazin-1-yl)(3-methoxyphenyl)methanone], for which the IC50 lay in the range of 1 to 10 µM.
With `COc1cc(-c2nc3cc(NC(C)=O)ccc3n2C2(C)COC2)c(C)c(O)c1O` [Example 311, N-(2-(3,4-dihydroxy-5-methoxy-2-methylphenyl)-1-(3-methyloxetan-3-yl)-1H-benzo[d]imidazol-5-yl)acetamide], the IC50 lay in the range of 0.1 to 1 µM.
With `O=C(O)c1c(O)cc(-c2nc3ccncc3[nH]2)cc1F` [Example 90, 2-fluoro-6-hydroxy-4-(3H-imidazo[4,5-c]pyridin-2-yl)benzoic acid], the IC50 is 10 to 100 µM.
Regarding `O=C(O)c1ccc(-c2nc3cc(N4CCC4)ccc3[nH]2)c(F)c1O` [Example 129, 4-(5-(azetidin-1-yl)-1H-benzo[d]imidazol-2-yl)-3-fluoro-2-hydroxybenzoic acid], the IC50 lay in the range of 1 to 10 µM.
With `Cc1cc(C(=O)O)c(O)cc1-c1nc2ccccc2n1C1COC1` [Example 171, 2-hydroxy-5-methyl-4-(1-(oxetan-3-yl)-1H-benzo[d]imidazol-2-yl)benzoic acid], the IC50 was > 100 µM.
Take `COc1cc(-c2nc3cc(N4CCN(C(=O)c5cccc(C(=O)O)c5)CC4)ccc3[nH]2)cc(O)c1O` [Example 101, 3-(4-(2-(3,4-dihydroxy-5-methoxyphenyl)-1H-benzo[d]imidazol-5-yl)piperazine-1-carbonyl)benzoic acid]: the IC50 is 10 to 100 µM.
Turning to `COc1cc(-c2nc3cc(N4CCC4)c(C)cc3[nH]2)cc(O)c1O` [Example 164, 5-(5-(azetidin-1-yl)-6-methyl-1H-benzo[d]imidazol-2-yl)-3-methoxybenzene-1,2-diol], the IC50 fell in the range of 1 to 10 µM.
Take `COCCN1CCN(c2ccc3[nH]c(-c4cc(O)c(O)c(OC)c4)nc3c2)CC1` [Example 61, 3-methoxy-5-(5-(4-(2-methoxyethyl)piperazin-1-yl)-1H-benzo[d]imidazol-2-yl)benzene-1,2-diol]: the IC50 was > 100 µM.
Turning to `COc1cc(-c2nc3cc(O)ccc3n2C2CCC2)c(C)c(O)c1O` [Example 334, 4-(1-cyclobutyl-5-hydroxy-1H-benzo[d]imidazol-2-yl)-6-methoxy-3-methylbenzene-1,2-diol], the IC50 was in the range of 0.1 to 1 µM.
Regarding `COc1cc(-c2nc3cc(N4CC5(CN(C)C5)C4)ccc3[nH]2)cc(O)c1O` [Example 152, 3-methoxy-5-(5-(6-methyl-2,6-diazaspiro[3.3]heptan-2-yl)-1H-benzo[d]imidazol-2-yl)benzene-1,2-diol], the IC50 is > 100 µM.
Consider `COCCn1c(-c2cc(OC)c(O)c(O)c2C)nc2ccccc21` [Example 172, 6-methoxy-4-[1-(2-methoxyethyl)-1H-1,3-benzodiazol-2-yl]-3-methylbenzene-1,2-diol], for which the IC50 was > 100 µM.
For `O=C(O)c1ccc(-c2nc3cc(N4CCN(c5cccnc5)CC4)ccc3[nH]2)cc1O` [Example 119, 2-hydroxy-4-(5-(4-(pyridin-3-yl)piperazin-1-yl)-1H-benzo[d]imidazol-2-yl)benzoic acid], the IC50 was 10 to 100 µM.
Take `COc1cc(-c2nc3c(Cl)c(Cl)ccc3n2C2(C)COC2)cc(O)c1O` [Example 301, 5-(4,5-dichloro-1-(3-methyloxetan-3-yl)-1H-benzo[d]imidazol-2-yl)-3-methoxybenzene-1,2-diol]: the IC50 was 0.1 to 1 µM.
As to `COc1cc(-c2nc3cc(N4CC(NS(C)(=O)=O)C4)ccc3[nH]2)cc(O)c1O` [Example 146, N-(1-(2-(3,4-dihydroxy-5-methoxyphenyl)-1H-benzo[d]imidazol-5-yl)azetidin-3-yl)methanesulfonamide], the IC50 was in the range of 1 to 10 µM.
As for `CNC(=O)c1ccc2nc(-c3cc(OC)c(O)c(O)c3F)n(C3(C)CCC3)c2c1` [Example 310, 2-(2-fluoro-3,4-dihydroxy-5-methoxyphenyl)-N-methyl-1-(1-methylcyclobutyl)-1H-benzo[d]imidazole-6-carboxamide], the IC50 was ≤ 0.1 µM.
Take `COc1cc(-c2nc3ccncc3s2)cc(O)c1O` [Example 77, 3-methoxy-5-(thiazolo[5,4-c]pyridin-2-yl)benzene-1,2-diol]: the IC50 was in the range of 10 to 100 µM.
On the same count and under the same terms, as for `COc1cc(-c2nc3ccccc3[nH]2)cc(O)c1O` [Example 9, 5-(1H-benzo[d]imidazol-2-yl)-3-methoxybenzene-1,2-diol], the figure is > 100 µM; as for `COc1cc(-c2nc3ccccc3n2C2(C)COC2)c(OC(F)F)c(O)c1O` [Example 217, 3-(difluoromethoxy)-6-methoxy-4-(1-(3-methyloxetan-3-yl)-1H-benzo[d]imidazol-2-yl)benzene-1,2-diol], 10 to 100 µM; as for `COc1cc(-c2nc3cc(N4CCNC4=O)ccc3n2C2(C)COC2)c(F)c(O)c1O` [Example 198, 1-(2-(2-fluoro-3,4-dihydroxy-5-methoxyphenyl)-1-(3-methyloxetan-3-yl)-1H-benzo[d]imidazol-5-yl)imidazolidin-2-one], ≤ 0.1 µM.
The same measure, in the same setting: with `COc1cc(-c2nc3cc(NC(=O)c4cccnc4)ccc3n2C2(C)COC2)c(F)c(O)c1O` [Example 304, N-(2-(2-fluoro-3,4-dihydroxy-5-methoxyphenyl)-1-(3-methyloxetan-3-yl)-1H-benzo[d]imidazol-5-yl)nicotinamide] the figure was 0.1 to 1 µM.
Same read-out and setting: with `COc1cc(-c2nc3ccc(C(=O)Nc4cccnc4)cc3n2C2(C)COC2)c(F)c(O)c1O` [Example 250, 2-(2-fluoro-3,4-dihydroxy-5-methoxyphenyl)-1-(3-methyloxetan-3-yl)-N-(pyridin-3-yl)-1H-1,3-benzodiazole-6-carboxamide] the figure was ≤ 0.1 µM; with `COc1cc(-c2nc3cc(N4CCN(S(C)(=O)=O)CC4)ccc3[nH]2)cc(O)c1O` [Example 50, 3-methoxy-5-(5-(4-(methylsulfonyl)piperazin-1-yl)-1H-benzo[d]imidazol-2-yl)benzene-1,2-diol], 1 to 10 µM; with `COc1cc(-c2nc3cc(N4CCC4)ccc3[nH]2)c(C)c(O)c1O` [Example 189, 4-(5-(azetidin-1-yl)-1H-benzo[d]imidazol-2-yl)-6-methoxy-3-methylbenzene-1,2-diol], 1 to 10 µM.
`COc1cc(-c2nc3cc(N4CCC4)cc(C)c3[nH]2)cc(O)c1O` [Example 293, 5-(5-(azetidin-1-yl)-7-methyl-1H-benzo[d]imidazol-2-yl)-3-methoxybenzene-1,2-diol]: the IC50 was > 100 µM.
Turning to `COc1ccccc1C(=O)N1CCN(c2ccc3[nH]c(-c4cc(O)c(O)c(OC)c4)nc3c2)CC1` [Example 86, (4-(2-(3,4-dihydroxy-5-methoxyphenyl)-1H-benzo[d]imidazol-5-yl)piperazin-1-yl)(2-methoxyphenyl)methanone], the IC50 fell in the range of 1 to 10 µM.
